Series [1] in a line: physchem. The settings on record: octanol/water phosphate buffer, pH 7.4.
In series [2] the target is T1, Tyrosine-protein kinase JAK1 (Homo sapiens, UniProt P23458).
Series [3] deals with T2, Non-receptor tyrosine-protein kinase TYK2 (Homo sapiens, UniProt P29597).
Series [4] in a line: Passive apparent permeability from apical to basolateral side in RRCK cells. The class given is ADME, cell-based, Canis lupus familiaris, MDCKII-LE. The settings on record: dog, MDCK.
Series [5] has as its target T3, Tyrosine-protein kinase JAK2 (Homo sapiens, UniProt O60674).
In series [6] the target is T4, Tyrosine-protein kinase JAK3 (Homo sapiens, UniProt P52333).
T4 sequence (P52333 whole entry): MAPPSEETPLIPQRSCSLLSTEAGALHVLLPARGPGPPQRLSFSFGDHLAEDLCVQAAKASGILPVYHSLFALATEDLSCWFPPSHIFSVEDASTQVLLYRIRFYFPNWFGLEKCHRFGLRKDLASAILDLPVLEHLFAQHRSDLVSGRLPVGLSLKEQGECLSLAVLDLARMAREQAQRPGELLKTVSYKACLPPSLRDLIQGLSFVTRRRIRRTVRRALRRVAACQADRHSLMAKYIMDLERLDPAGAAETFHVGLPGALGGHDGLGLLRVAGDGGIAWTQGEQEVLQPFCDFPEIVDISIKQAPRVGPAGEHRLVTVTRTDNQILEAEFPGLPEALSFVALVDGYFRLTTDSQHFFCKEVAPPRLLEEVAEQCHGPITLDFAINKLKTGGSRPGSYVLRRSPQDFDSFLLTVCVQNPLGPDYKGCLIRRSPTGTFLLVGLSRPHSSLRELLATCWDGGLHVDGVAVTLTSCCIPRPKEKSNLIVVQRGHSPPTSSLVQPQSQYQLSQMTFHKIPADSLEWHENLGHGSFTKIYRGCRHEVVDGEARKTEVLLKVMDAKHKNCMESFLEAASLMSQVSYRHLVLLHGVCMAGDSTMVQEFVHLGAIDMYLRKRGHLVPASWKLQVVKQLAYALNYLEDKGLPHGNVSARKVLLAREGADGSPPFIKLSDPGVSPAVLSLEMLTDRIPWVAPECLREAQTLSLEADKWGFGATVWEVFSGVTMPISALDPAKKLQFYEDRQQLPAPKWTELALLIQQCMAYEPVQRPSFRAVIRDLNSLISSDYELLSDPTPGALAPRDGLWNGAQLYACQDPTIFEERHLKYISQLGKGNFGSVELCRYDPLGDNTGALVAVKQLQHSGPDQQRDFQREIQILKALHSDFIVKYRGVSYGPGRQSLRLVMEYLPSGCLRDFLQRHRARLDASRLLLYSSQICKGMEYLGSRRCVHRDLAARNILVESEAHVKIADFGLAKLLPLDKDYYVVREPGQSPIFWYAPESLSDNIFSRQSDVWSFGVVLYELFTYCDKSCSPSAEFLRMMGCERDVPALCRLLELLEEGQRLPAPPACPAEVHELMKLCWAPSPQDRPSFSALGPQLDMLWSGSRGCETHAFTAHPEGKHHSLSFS

Series [7] has as its target T3, Tyrosine-protein kinase JAK2. Kind of series: Inhibition of human JAK2 using fluorescence labeled peptide as substrate and using ATP at its Km level by microfluidic based mobility shift assay.
In series [8] the target is T1, Tyrosine-protein kinase JAK1. Kind of series: Inhibition of human JAK1 using fluorescence labeled peptide as substrate and using ATP at its Km level by microfluidic based mobility shift assay.
Series [9] addresses T4, Tyrosine-protein kinase JAK3. As to the kind of experiment: Inhibition of human JAK3 using fluorescence labeled peptide as substrate and using ATP at its Km level by microfluidic based mobility shift assay.
Series [10] has as its target T2, Non-receptor tyrosine-protein kinase TYK2. Kind of series: Inhibition of human TYK2 using fluorescence labeled peptide as substrate and using ATP at its Km level by microfluidic based mobility shift assay.
Series [11] addresses T3, Tyrosine-protein kinase JAK2. The source holds these as a separate data set.
Series [12] addresses T5, JAK1/TYK2 (Homo sapiens, UniProt P23458+P29597).
The target of series [13] is T3, Tyrosine-protein kinase JAK2. This is another data set of the same source.
The target in series [14] is T5, JAK1/TYK2. As to the kind of experiment: Inhibition of JAK1/TYK2 signaling pathway in human lymphocytes of whole blood assessed as reduction in IFN-alpha induced STAT3 phosphorylation preincubated for 45 mins followed by IFN-alpha addition and measured measured after 15 mins by FACS assay. The class given is cell-based. (In general: In flow cytometry, cells or beads pass a laser one at a time.)

From ChEMBL document CHEMBL4411260, “Dual Inhibition of TYK2 and JAK1 for the Treatment of Autoimmune Diseases: Discovery of (( S)-2,2-Difluorocyclopropyl)((1 R,5 S)-3-(2-((1-methyl-1 H-pyrazol-4-yl)amino)pyrimidin-4-yl)-3,8-diazabicyclo[3.2.1]octan-8-yl)methanone (PF-06700841)” (J Med Chem, 2018) come the findings set out here.

Structures are written as SMILES. pIC50: −log10 of the molar value.

One may read the logD as lipophilicity at a set pH, counting ionised and neutral species. High values mean higher lipophilicity, low ones lower lipophilicity. One may read the pIC50 as the IC50 on a negative log10 scale, so that one unit is a factor of ten. Usually Papp A→B stands for the apparent permeability from the apical to the basolateral side of a cell layer.

T5 sequence (P23458 whole entry): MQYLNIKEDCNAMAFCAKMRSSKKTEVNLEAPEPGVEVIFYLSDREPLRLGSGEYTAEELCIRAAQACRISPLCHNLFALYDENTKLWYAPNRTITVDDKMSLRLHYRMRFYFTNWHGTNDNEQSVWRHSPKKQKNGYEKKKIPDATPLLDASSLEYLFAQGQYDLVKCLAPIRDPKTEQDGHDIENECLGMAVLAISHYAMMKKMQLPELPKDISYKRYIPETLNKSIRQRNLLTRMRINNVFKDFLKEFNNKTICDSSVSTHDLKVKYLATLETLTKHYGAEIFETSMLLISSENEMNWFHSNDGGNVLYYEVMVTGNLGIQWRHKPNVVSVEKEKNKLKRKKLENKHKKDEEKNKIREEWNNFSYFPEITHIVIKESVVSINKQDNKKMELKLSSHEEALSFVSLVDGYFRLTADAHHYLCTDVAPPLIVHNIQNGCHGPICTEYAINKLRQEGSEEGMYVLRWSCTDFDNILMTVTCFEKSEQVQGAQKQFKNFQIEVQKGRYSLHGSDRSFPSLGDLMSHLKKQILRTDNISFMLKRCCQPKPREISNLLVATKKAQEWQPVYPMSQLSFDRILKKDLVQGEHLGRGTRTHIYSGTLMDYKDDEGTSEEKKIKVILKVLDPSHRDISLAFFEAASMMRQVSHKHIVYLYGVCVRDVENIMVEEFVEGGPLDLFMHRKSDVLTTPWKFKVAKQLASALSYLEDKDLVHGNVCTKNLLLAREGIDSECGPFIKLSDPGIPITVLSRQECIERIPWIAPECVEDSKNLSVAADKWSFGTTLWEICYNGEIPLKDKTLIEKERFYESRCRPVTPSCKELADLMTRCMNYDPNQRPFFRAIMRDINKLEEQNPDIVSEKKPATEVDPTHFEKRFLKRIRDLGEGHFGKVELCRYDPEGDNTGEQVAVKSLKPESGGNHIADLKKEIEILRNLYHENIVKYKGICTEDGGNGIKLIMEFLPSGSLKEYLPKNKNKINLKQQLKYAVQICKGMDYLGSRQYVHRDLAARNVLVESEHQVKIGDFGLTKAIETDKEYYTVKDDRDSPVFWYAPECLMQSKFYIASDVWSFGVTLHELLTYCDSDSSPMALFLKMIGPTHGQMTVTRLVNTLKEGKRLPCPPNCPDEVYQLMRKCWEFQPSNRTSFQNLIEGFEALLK
T5 sequence (P29597 whole entry): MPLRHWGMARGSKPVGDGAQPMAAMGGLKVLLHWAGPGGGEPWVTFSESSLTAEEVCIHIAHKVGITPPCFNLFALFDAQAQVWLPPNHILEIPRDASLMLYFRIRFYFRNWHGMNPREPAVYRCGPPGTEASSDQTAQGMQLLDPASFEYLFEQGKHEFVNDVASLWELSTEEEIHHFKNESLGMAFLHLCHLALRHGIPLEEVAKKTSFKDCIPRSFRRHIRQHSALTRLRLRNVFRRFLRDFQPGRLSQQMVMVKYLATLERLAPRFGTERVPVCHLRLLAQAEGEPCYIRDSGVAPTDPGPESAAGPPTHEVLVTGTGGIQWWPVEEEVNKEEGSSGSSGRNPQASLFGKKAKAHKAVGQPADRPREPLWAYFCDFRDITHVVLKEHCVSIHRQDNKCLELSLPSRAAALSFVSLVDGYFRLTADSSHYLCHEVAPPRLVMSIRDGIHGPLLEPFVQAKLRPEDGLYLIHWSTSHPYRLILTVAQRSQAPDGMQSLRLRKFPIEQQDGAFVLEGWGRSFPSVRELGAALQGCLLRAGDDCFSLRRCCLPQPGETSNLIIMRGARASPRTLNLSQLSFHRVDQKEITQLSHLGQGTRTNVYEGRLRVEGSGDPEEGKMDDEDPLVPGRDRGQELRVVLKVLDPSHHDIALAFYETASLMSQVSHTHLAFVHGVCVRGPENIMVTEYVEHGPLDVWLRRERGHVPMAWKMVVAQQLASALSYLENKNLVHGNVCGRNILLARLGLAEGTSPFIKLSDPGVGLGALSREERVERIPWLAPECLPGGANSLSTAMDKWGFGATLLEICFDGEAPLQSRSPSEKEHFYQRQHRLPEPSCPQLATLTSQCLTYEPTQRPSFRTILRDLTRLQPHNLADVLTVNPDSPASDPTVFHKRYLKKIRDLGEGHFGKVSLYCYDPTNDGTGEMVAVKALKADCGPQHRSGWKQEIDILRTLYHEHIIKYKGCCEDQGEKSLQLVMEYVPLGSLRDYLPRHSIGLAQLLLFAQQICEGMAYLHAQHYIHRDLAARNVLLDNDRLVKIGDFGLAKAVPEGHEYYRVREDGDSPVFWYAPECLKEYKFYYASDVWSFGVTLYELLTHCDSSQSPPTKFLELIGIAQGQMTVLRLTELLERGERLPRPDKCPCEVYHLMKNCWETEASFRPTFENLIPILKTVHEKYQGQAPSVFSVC
T1 sequence (P23458 whole entry): as the sequence (P23458 whole entry) above
T3 sequence (O60674 whole entry): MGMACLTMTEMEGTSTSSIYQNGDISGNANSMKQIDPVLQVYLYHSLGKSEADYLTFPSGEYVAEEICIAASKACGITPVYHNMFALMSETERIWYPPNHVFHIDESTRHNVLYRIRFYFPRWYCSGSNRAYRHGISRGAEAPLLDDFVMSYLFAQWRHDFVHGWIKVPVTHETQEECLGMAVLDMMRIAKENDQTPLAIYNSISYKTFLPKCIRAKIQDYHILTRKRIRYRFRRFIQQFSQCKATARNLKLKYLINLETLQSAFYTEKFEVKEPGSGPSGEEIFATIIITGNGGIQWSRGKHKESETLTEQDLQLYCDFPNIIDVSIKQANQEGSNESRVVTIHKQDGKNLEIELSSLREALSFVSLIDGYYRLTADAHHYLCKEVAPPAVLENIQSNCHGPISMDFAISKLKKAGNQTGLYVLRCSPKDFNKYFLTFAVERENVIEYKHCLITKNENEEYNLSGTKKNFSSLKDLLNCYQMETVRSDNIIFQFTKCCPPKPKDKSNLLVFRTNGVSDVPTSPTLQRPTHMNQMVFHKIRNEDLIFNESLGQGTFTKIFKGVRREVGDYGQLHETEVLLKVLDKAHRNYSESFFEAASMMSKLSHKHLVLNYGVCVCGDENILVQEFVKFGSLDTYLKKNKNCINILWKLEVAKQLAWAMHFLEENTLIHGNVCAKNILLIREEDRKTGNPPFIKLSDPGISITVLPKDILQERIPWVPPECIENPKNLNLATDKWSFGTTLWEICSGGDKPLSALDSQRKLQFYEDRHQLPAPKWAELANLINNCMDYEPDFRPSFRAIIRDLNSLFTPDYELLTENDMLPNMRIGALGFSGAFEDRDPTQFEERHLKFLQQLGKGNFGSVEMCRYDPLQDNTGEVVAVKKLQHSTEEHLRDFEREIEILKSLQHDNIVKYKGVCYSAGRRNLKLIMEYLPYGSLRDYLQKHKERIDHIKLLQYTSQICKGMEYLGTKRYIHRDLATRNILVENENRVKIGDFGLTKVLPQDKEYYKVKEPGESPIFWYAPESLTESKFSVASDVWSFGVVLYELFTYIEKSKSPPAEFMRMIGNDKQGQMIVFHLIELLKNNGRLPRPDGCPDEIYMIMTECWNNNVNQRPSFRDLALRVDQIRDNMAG
T2 sequence (P29597 whole entry): as the sequence (P29597 whole entry) above

In turn, `CCNC(=O)c1ccc(Nc2ncc(F)c(N3CC4CC[C@H](C3)N4C(=O)C3CC3)n2)cc1` (single isomer, unassigned) showed a logD in series [1] of 2.88.
`CCNC(=O)c1ccc(Nc2nccc(N3C[C@H]4C[C@@H](C3)N4C(=O)C3CC3)n2)cc1`: the logD in series [1] worked out at 2.15.
Same read-out and setting: to `CCNC(=O)c1ccc(Nc2nccc(N3CC4CC[C@H](C3)N4C(=O)C3CC3)n2)cc1` (single isomer, unassigned) belongs 1.86.
For `CCNC(=O)c1ccc(Nc2ncc(F)c(N3CC4CC[C@H](C3)N4C(=O)C3CC3)n2)nc1` (single isomer, unassigned), the pIC50 is below 5.00 in series [2], 5.14 in [3], below 5.00 in [5] and below 5.00 in series [6]. Besides, the logD in [1] turned out to be 2.71. In series [4], the Papp A→B lay in the range of 56 to 188 nm/s.
For the molecule `CCNC(=O)c1ccc(Nc2nccc(N3CCN(C(=O)CC#N)CC3)n2)cc1`, the pIC50 in series [7] was 5.97; in series [8], 5.51; in series [9] it was 5.06; in series [10], 6.43.
As to `CCNC(=O)c1ncc(Nc2ncc(F)c(N3CC4CC[C@H](C3)N4C(=O)C3CC3)n2)cc1C` (single isomer, unassigned), the pIC50 in series [2] is 6.63; in series [3] it was 7.32; in series [5], 6.16; in [13] it was 4.91; in [14] it was 6.41; in [6] it was 5.30. For the same molecule, the logD in series [1] was found to be 3.21. The fIC50 was 11 nM in [11] and 91 nM in [12]. The Papp A→B in [4] is 56 to 188 nm/s.
For the molecule `CCNC(=O)c1ccc(Nc2nccc(N3C[C@@H]4CC[C@H]3CN4C(=O)C3CC3)n2)cc1`, the pIC50 in series [2] was 6.13; in [3] it was 6.83; in series [5] it was 5.56; in series [6], below 5.00. The same molecule showed a logD in [1] of 2.16.
For the molecule `CCNC(=O)c1ccc(Nc2nccc(N3C[C@@H]4C[C@H]3CN4C(=O)C3CC3)n2)cc1`, the pIC50 in series [2] was below 5.02; in series [3], 5.76; in series [5], below 5.00; in series [6], below 5.00. Also, the logD in series [1] was 1.96.
Molecule `Cn1cc(Nc2nccc(N3CC4CC[C@H](C3)N4C(=O)C3CC3)n2)cn1` (single isomer, unassigned) came in with a logD in series [1] of 1.52. In addition, the figures for the fIC50 in [11] and in [12] were 11 nM and 91 nM, respectively.
In series [1], `Cn1cc(Nc2nccc(N3CC4CC[C@H](C3)N4C(=O)[C@H]3CC3(F)F)n2)cn1` (single isomer, unassigned) came in with a logD of 1.55.
As for `Cn1cc(Nc2ncc(F)c(N3CC4CC[C@H](C3)N4C(=O)C3CC3)n2)cn1` (single isomer, unassigned), the pIC50 in series [2] was 7.12; in [3] it was 7.28; in [5], 6.31; in series [13], 5.20; in series [14], 6.84; in series [6], 5.54. The same molecule yielded a logD in series [1] of 2.13. Besides, the fIC50 in [11] is 8 nM; in [12], 84 nM. Besides, the Papp A→B in [4] was in the range of 56 to 188 nm/s.
With `O=C(C1CC1)N1C2CC[C@@H]1CN(c1nc(Nc3cnn(CCO)c3)ncc1F)C2` (single isomer, unassigned), the logD in series [1] was 1.78. In addition, the fIC50 in series [11] stood at 10 nM; in [12] it was 70 nM. Besides, the Papp A→B in [4] fell in the range of 56 to 188 nm/s.
Taken in the same sequence, the figures for `Cn1cc(Nc2nccc(N3CC4CC[C@H](C3)N4C(=O)NCC#N)n2)cn1` (single isomer, unassigned) were 0.97, 28 nM, 73 nM and 6 nm/s.
As to `CCNC(=O)c1ccc(Nc2nccc(N3C[C@@H]4C[C@H]3CN4C(=O)CC#N)n2)cc1`, the pIC50 in series [7] was 6.44; in series [2] it was 5.43; in [3], 6.11; in [8], 6.45; in [5] it was below 5.00; in series [9], below 5.31. For the same molecule, the figures for the pIC50 in series [10] and in series [6] were 7.64 and below 5.00, respectively. For the same molecule, the logD in [1] came to 0.9.
Turning to `CCNC(=O)c1ccc(Nc2nccc(N3C[C@H]4C[C@@H]3CN4C(=O)CC#N)n2)cc1`, the pIC50 in series [7] is below 5.38; in series [8], 5.14; in [9], below 5.00; in [10] it was 5.57. Further, the logD in series [1] turned out to be 0.9.
Turning to `CCNC(=O)N1C2CC[C@@H]1CN(c1ccnc(Nc3cnn(C)c3)n1)C2` (single isomer, unassigned), in series [1], the logD was 1.44. The figures for the fIC50 in series [11] and in series [12] were 14 nM and 60 nM, respectively.
As to `Cn1cc(Nc2nccc(N3CC4CC[C@H](C3)N4C(=O)NCC(F)(F)F)n2)cn1` (single isomer, unassigned), the pIC50 in series [2] is 7.85; in series [3], 7.55; in [5], 6.84; in series [13], 5.94; in [14], 7.29; in series [6], 5.16. Moreover, the logD in [1] turned out to be 1.72. Besides, the fIC50 in [11] was 15 nM; in [12], 26 nM.
